Where “and” joins values, the source holds several entries; their conditions need not be identical. Equal entries are not always repeated. Where two headings read alike, the source gives them in different places.
Assays:
[1] = system: MMV; assay type: cell-based, Murine minute virus; settings: 2-8° C.; for RF (Reduction Factor): 5 mM Tris + 1.0M Arginine-HCl (pH 7.0)
[2] = system: X-MLV; assay type: cell-based, Xenotropic Murine leukemia virus
[3] = system: SuHV-1; assay type: cell-based, Suid herpesvirus 1
[4] = system: polio virus; settings: cited from earlier work
[5] = system: X-MLV; assay type: cell-based, Xenotropic Murine leukemia virus; settings: for RF (Reduction Factor) / Sample Titer: 2-8° C.
[6] = system: X-MLV; assay: TRITON X-100 X-MLV inactivation in GE2-Fcγ-Fcε clarified conditioned media, TCID50 assay; assay type: cell-based, Xenotropic Murine leukemia virus
Description: Virus inactivation kinetics obtained by exposure to low pH, TRITON® X-100 and arginine were studied using sample process intermediates of a recombinant antibody designated GE2-Fcγ-Fcε. All studies were performed at 2-8° C.
For the TRITON® X-100 inactivation studies, TRITON® X-100 was added to the GE2-Fcγ-Fcε clarified conditioned media (CCM) at concentrations of 0.10% (v/v) and 0.20% (v/v). MABSELECT™ (GE Healthcare Bio-Sciences Corp., Piscataway, N.J., USA) Protein-A chromatography eluates containing GE2-Fcγ-Fcε with the pH adjusted to 3.7 or 3.9 were used as the starting material for the low pH viral inactivation studies. Neutralized MABSELECT™ Eluate buffer (1.0 M arginine-HCl, ˜5 mM Tris, pH 7.3 (+/−) 0.5) and neutralized MABSELECT™ Eluate buffer containing GE2-Fcγ-Fcε were also used as process intermediates for the additional inactivation studies. The process intermediates used in these studies were known to be stable under the examined conditions.
TRITON® X-100 inactivation experiments were performed in duplicate using final concentrations of 0.10% or 0.20% (v/v) TRITON® X-100 in GE2-Fcγ-Fcε clarified conditioned media.

[7] = 1.0 M arginine-HCl, ~5 mM Tris, pH ~7.0, with GE2-Fcγ-Fcε 3.3 mg/mL, 2-8° C., 120 min
[8] = 5 mM Tris + 1.0M Arginine-HCl (pH 7.0), 2-8° C., 15 min
[9] = 5 mM Tris + 1.0M Arginine-HCl (pH 7.0), 2-8° C., 30 min
[10] = 5 mM Tris + 1.0M Arginine-HCl (pH 7.0), 2-8° C., 60 min
[11] = 5 mM Tris + 1.0M Arginine-HCl (pH 7.0), 2-8° C., 120 min
[12] = 5 mM Tris + 1.0M Arginine-HCl (pH 7.0), 2-8° C., 240 min (non-quenched)
[13] = 5 mM Tris + 1.0M Arginine-HCl (pH 7.0), 2-8° C., 240 min (quenched)
[14] = 0.10% (v/v) in GE2-Fcγ-Fcε clarified conditioned media, 2-8° C., 5 min
[15] = 0.10% (v/v) in GE2-Fcγ-Fcε clarified conditioned media, 2-8° C., 45 min
[16] = 0.10% (v/v) in GE2-Fcγ-Fcε clarified conditioned media, 2-8° C., 120 min
[17] = 0.20% (v/v) in GE2-Fcγ-Fcε clarified conditioned media, 2-8° C., 30 min
[18] = 0.20% (v/v) in GE2-Fcγ-Fcε clarified conditioned media, 2-8° C., 45 min

## N=C(N)NCCC[C@H](N)C(=O)O [Arginine, arginine]
[1]; 240 min (non-quenched)
  RF (Reduction Factor): 0.30 and 0.17
[1]; 240 min (quenched)
  RF (Reduction Factor): −0.25
[1]
  Adjusted titer of sample: 6.83 Log10 TCID50/mL and 7.33 Log10 TCID50/mL
  Adjusted titer of sample (Output virus titer): 7.38 Log10 TCID50/mL and 7.75 Log10 TCID50/mL
  Titer of quenched sample: 6.38 Log10 TCID50/mL and 6.75 Log10 TCID50/mL
  Titer of sample from TCID50 assay: 6.83 Log10 TCID50/mL and 7.33 Log10 TCID50/mL
[1]; 15 min
  Adjusted titer of sample: 7.50 Log10 TCID50/mL and 7.25 Log10 TCID50/mL
  Titer of quenched sample: 6.50 Log10 TCID50/mL and 6.25 Log10 TCID50/mL
[1]; 30 min
  Adjusted titer of sample: 7.63 Log10 TCID50/mL and 7.38 Log10 TCID50/mL
  Titer of quenched sample: 6.63 Log10 TCID50/mL and 6.38 Log10 TCID50/mL
[1]; 60 min
  Adjusted titer of sample: 7.63 Log10 TCID50/mL and 7.75 Log10 TCID50/mL
  Titer of quenched sample: 6.63 Log10 TCID50/mL and 6.75 Log10 TCID50/mL
[1]; 120 min
  Adjusted titer of sample: 7.50 Log10 TCID50/mL and 7.75 Log10 TCID50/mL
  Titer of quenched sample: 6.50 Log10 TCID50/mL and 6.75 Log10 TCID50/mL
[2]; 1 M arginine, with and without GE2-Fcγ-Fcε, 120 min of exposure
  X-MLV Reduction Factor in all of the arginine studies: ≥ 4.1
[2]; 1.0 M arginine-HCl, ~5 mM Tris, pH ~7.0, no GE2-Fcγ-Fcε, 2-8° C., 120 min
  Output titer: ≦1.17 Log10 TCID50/mL
[2]; [7]
  Output titer: ≦1.17 Log10 TCID50/mL
  RF (Reduction Factor): ≧4.2
[2]; neutral solution containing 1 M arginine, Runs 9-12
  exposure time after which X-MLV was at, or below, detectable levels: 15 min
[3]; [8]
  Adjusted titer of sample: 2.95 Log10 TCID50/mL and 2.89 Log10 TCID50/mL
  RF (Reduction Factor): 2.30 and 2.11
  Titer of quenched sample: 1.95 Log10 TCID50/mL and 1.89 Log10 TCID50/mL
[3]; [9]
  Adjusted titer of sample: ≦1.57 Log10 TCID50/mL
  Titer of quenched sample: ≦0.57 Log10 TCID50/mL
[3]; [10]
  Adjusted titer of sample: ≦1.57 Log10 TCID50/mL
  Titer of quenched sample: ≦0.57 Log10 TCID50/mL
[3]; [11]
  Adjusted titer of sample: ≦1.57 Log10 TCID50/mL
  Titer of quenched sample: ≦0.57 Log10 TCID50/mL
[3]; [12]
  Adjusted titer of sample: ≦1.53 Log10 TCID50/mL
  Titer of sample from TCID50 assay: ≦1.53 Log10 TCID50/mL
[3]; [13]
  Adjusted titer of sample (Output virus titer): ≦1.57 Log10 TCID50/mL
  Titer of quenched sample: ≦0.57 Log10 TCID50/mL
[3]; 1.0 M arginine (pH 7.0), duplicate runs
  exposure time after which SuHV-1 titer was below the assay limit of detection: 30 min
[4]
  inactivation of non-enveloped polio virus (in words): ineffective
[5]; 5 mM Tris + 0.10M Arginine-HCl (pH 7.0), 30 min
  RF (Reduction Factor): 0.2 and 0.3
[5]; 5 mM Tris + 0.10M Arginine-HCl (pH 7.0), 120 min
  RF (Reduction Factor): 0.3
[5]; 5 mM Tris + 0.50M Arginine-HCl (pH 7.0), 15 min
  RF (Reduction Factor): 1.7 and 1.6
[5]; 5 mM Tris + 0.50M Arginine-HCl (pH 7.0), 30 min
  RF (Reduction Factor): 2.3 and 2.0
[5]; 5 mM Tris + 0.50M Arginine-HCl (pH 7.0), 60 min
  RF (Reduction Factor): 2.7 and 2.5
[5]; 5 mM Tris + 0.50M Arginine-HCl (pH 7.0), 120 min
  RF (Reduction Factor): 3.4 and 3.5
[5]; 5 mM Tris + 0.50M Arginine-HCl (pH 7.0), 120 min, listed as arginine
  RF (Reduction Factor): 3.4 and 3.5
[5]; 15 min
  Sample Titer: 5.59 Log10 TCID50/mL and 5.71 Log10 TCID50/mL and 4.10 Log10 TCID50/mL and 4.04 Log10 TCID50/mL
[5]; 30 min
  Sample Titer: 5.71 Log10 TCID50/mL and 5.29 Log10 TCID50/mL and 3.50 Log10 TCID50/mL and 3.68 Log10 TCID50/mL
[5]; 60 min
  Sample Titer: 5.65 Log10 TCID50/mL and 5.29 Log10 TCID50/mL and 3.03 Log10 TCID50/mL and 3.15 Log10 TCID50/mL
[5]; pH 7
  X-MLV inactivation (in words): did not occur

## NCC(=O)O [Glycine, glycine, reference compound]
[5]; pH 7
  Adjusted titer of sample: 6.00 Log10 TCID50/mL and 5.50 Log10 TCID50/mL and 5.60 Log10 TCID50/mL and 5.38 Log10 TCID50/mL and 5.63 Log10 TCID50/mL
  Adjusted titer of sample (Output virus titer): 5.63 Log10 TCID50/mL and 5.88 Log10 TCID50/mL
  Titer of quenched sample: 5.00 Log10 TCID50/mL and 4.50 Log10 TCID50/mL and 4.63 Log10 TCID50/mL and 4.38 Log10 TCID50/mL and 4.88 Log10 TCID50/mL
  Titer of sample from TCID50 assay: 5.60 Log10 TCID50/mL

## TRITON ® X-100
[6]; [14]
  Adjusted titer of sample: ≦2.00 Log10 TCID50/mL
  Titer of quenched sample: ≦0.70 Log10 TCID50/mL
[6]; [15]
  Adjusted titer of sample: ≦1.99 Log10 TCID50/mL
  Titer of quenched sample: ≦0.69 Log10 TCID50/mL
[6]; [16]
  Adjusted titer of sample (Output virus titer): ≦1.99 Log10 TCID50/mL
  RF (Reduction Factor): ≥ 3.1
  Titer of quenched sample: ≦0.69 Log10 TCID50/mL
[6]; 0.10% and 0.20% TRITON X-100
  exposure time after which X-MLV was below detection limits: 5 min
[6]; 0.20% (v/v) in GE2-Fcγ-Fcε clarified conditioned media, 2-8° C., 15 min
  RF (Reduction Factor): ≧3.1
[6]; [17]
  Adjusted titer of sample: ≦1.99 Log10 TCID50/mL
  RF (Reduction Factor): ≧3.1
  Titer of quenched sample: ≦0.69 Log10 TCID50/mL
[6]; [18]
  Adjusted titer of sample: ≦1.99 Log10 TCID50/mL
  RF (Reduction Factor): ≧3.1
  Titer of quenched sample: ≦0.69 Log10 TCID50/mL
[6]; 0.20% (v/v) in GE2-Fcγ-Fcε clarified conditioned media, 2-8° C., 120 min
  RF (Reduction Factor): ≥ 2.6
